Activity calls are given as the source filed them. No rule for the calls is given here.
Tests used:
[1] = system: Schistosoma mansoni; format: functional, Puerto Rican; details: temperature 37 degree C; tested at 10 uM; Worm movement inhibition (compared to DMSO control)_lower value 0 %; Worm movement inhibition (compared to DMSO control)_upper value 100 %;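 as to Worm movement inhibition: in vitro assay using adult worms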
[2] = system: Schistosoma mansoni; test: In vitro activity on S. mansoni schistosomula at 10 uM; format: functional, organism-based; parameters: test concentration 10 uM, temperature 37 degree C, time incubation 72 h; details: Puerto Rican
[3] = system: Schistosoma mansoni; test: EC50 on S. mansoni schistosomula; format: functional, organism-based; details: Puerto Rican
[4] = system: Schistosoma mansoni; test: In vitro activity on S. mansoni schistosomula at 50 uM; format: functional, organism-based; parameters: test concentration 50 uM, temperature 37 degree C, time incubation 72 h; details: Puerto Rican

SMILES | Worm movement inhibition [1] [%] | In vitro activity [2] | EC50 [3] [nM] | In vitro activity [4]
COc1cc(N2CCC(N3CCN(C)CC3)CC2)ccc1Nc1ncc(Cl)c(Nc2ccccc2S(=O)(=O)C(C)C)n1 [TAE-684] | 99.53 | Active | 2400 | Active
COc1cc(N2CCN(C)CC2)ccc1Nc1nccc(-c2cn(C)c3cnccc23)n1 | 93.2 | Active | 3400 | Active
Cl.Cl.O=C(NCCCNc1nc(Nc2cccc(CN3CCOCC3)c2)ncc1C1CC1)C1CCC1 | 97.58 | Active | 3130 | Active
Cc1n[nH]c2ccc(-c3cncc(OC[C@@H](N)Cc4ccccc4)c3)cc12 | 93.77 | Active | 2930 | Active
CC[C@H](C)[C@H](NC(=O)[C@H]([C@@H](C)CC)N(C)C(C)=O)C(=O)N[C@H](C(=O)N[C@@H](CC(C)C)C(=O)[C@@]1(C)CO1)[C@@H](C)O [EPOXOMYCIN] | 97.15 | Active | 226 | Active
COc1ccc(-c2nc(N3CCOCC3)c3sc(CN(C)c4ncc(C(=O)NO)cn4)cc3n2)cn1 [FIMEPINOSTAT] | 56.87 | Active | 606 | Active
Cc1cccc(-c2nc(Nc3ccncc3)c3ccccc3n2)n1 | 40.28 | Active | 2620 | Active
C[C@@H]1C[C@H]2O[C@@H]2/C=C\C=C\C(=O)Cc2c(Cl)c(O)cc(O)c2C(=O)O1 [RADICICOL] | 82.43 | Active | 1830 | Active
OCCCNc1cc(-c2ccnc(Nc3cccc(Cl)c3)n2)ccn1 | 98.94 | Active | 410 | Active
CCNC(=O)c1noc(-c2cc(C(C)C)c(O)cc2O)c1-c1ccc(CN2CCOCC2)cc1 [LUMINESPIB] | 40.22 | Active | 194 | Active
CCNC(=O)c1cc2c(-c3cc(OCCN4CCCC4)c(Cl)cc3Cl)nc(N)nc2s1 | 91.33 | Active | 547 | Active
Cc1[nH]c(/C=C2\C(=O)Nc3ccc(S(=O)(=O)Cc4c(Cl)cccc4Cl)cc32)c(C)c1C(=O)N1CCC[C@@H]1CN1CCCC1 [PHA-665752] | 99.71 | Active | 4510 | Active
CC(/C=C/C(=O)NO)=C\[C@@H](C)C(=O)c1ccc(N(C)C)cc1 [TRICHOSTATIN] | 8.13 | Active | 558 | Active
CNc1ncc2cc(-c3ccc(-c4cccc(C)n4)cc3Cl)c(=O)n(C[C@H]3OC[C@H](N)CO3)c2n1 | 98.47 | Active | 2840 | Active
CC1(C)CC(=O)c2c(C(F)(F)F)nn(-c3ccc(C(N)=O)c(N[C@H]4CC[C@H](O)CC4)c3)c2C1 [SNX-2112] | 25.47 | Active | 1940 | Active

From ChEMBL document CHEMBL5096127, “Using ChEMBL to complement schistosome drug discovery” (2023)
